Experiments:
[1] = target: T1, Casein kinase I isoform alpha (Homo sapiens, UniProt P48729); assay: CSNK1A1 Inhibitory activity Assay 2
Description: (§1) Recombinant fusion protein of N-terminal Glutathion-S-Transferase (GST) and full-length human CSNK1A1, expressed by baculovirus infected insect cells and purified via Glutathion affinity chromatography, was purchased from Life Technologies (product no. PV4174) and used as enzyme. As substrate for the kinase reaction the biotinylated peptide biotin-Ahx-KRRRAL-pS-VASLPGL (C-terminus in amide form) was used which can be purchased e.g. from the company Biosyntan (Berlin-Buch, Germany). For the assay 50 nl of a 100 fold concentrated solution of the test compound in DMSO was pipetted into a white low volume 384-well microtiter plate (Greiner Bio-One, Frickenhausen, Germany), 2 μL of a solution of CSNK1A1 in aqueous assay buffer [50 mM HEPES pH 7.5, 10% (v/v) glycerol, 10 mM MgCl2, 50 mM NaCl, 1 mM dithiothreitol, 0.01% (w/v) bovine serum albumin, 0.01% (v/v) Triton X-100] were added and the mixture was incubated for 15 min at 22 C. to allow pre-binding of the test compounds to the enzyme before the start of the kinase reaction. […] Subsequently 2.5 μL of the kinase detection reagent (1.2 fold more concentrated than recommended by the producer) were added, the resulting mixture was incubated at 22 C. for 1 h and then the luminescence measured with a suitable measurement instrument (e.g. Viewlux from Perkin-Elmer).

[2] = target: Casein kinase I isoform delta (Homo sapiens, UniProt P48730); assay: CSNK1D-Inhibitory Activity Assay
Procedure: as §1, with “CSNK1D,” for “CSNK1A1,”, “PV3665)” for “PV4174)”, “Btn-Ahx-[…]” for “biotin-Ahx-KRRRAL-pS-VASLPGL”, “1536-well” for “low volume 384-well”, “CSNK1D” for “CSNK1A1”

[3] = target: T1, Casein kinase I isoform alpha; assay: CSNK1A1 High ATP Assay
Description: as §1

[4] = target: Epidermal growth factor receptor (Homo sapiens, UniProt P00533); assay: WT-EGFR Kinase Assay
Procedure: For the assay 50 nl of a 100 fold concentrated solution of the test compound in DMSO was pipetted into either a black low volume 384 well microtiter plate or a black 1536 well microtiter plate (both Greiner Bio-One, Frickenhausen, Germany), 2 μL of a solution of EGFR in aqueous assay buffer [50 mM Hepes pH 7.0, 10 mM MgCl2, 1 mM dithiothreitol, 0.5 mM EGTA, 0.3 mM activated sodium ortho-vanadate, 0.005% (w/v) bovine serum albumin, 0.005% (v/v) Tween-20] were added and the mixture was incubated for 15 min at 22° C. to allow pre-binding of the test compounds to the enzyme before the start of the kinase reaction. […] The concentration of EGFR was adjusted depending of the activity of the enzyme lot and was chosen appropriate to have the assay in the linear range, typical concentration was 7.6 pg/μL. The reaction was stopped by the addition of 3 μL of a solution of HTRF detection reagents (83.3 nM streptavidine-XL665 [Cisbio Bioassays, Codolet, France] and 1.67 nM PT66-Tb-Cryptate, a terbium-cryptate labelled anti-phospho-tyrosine antibody from Cisbio Bioassays [instead of the PT66-Tb-cryptate PT66-Eu-Chelate from Perkin Elmer can also be used]) in an aqueous EDTA-solution (133.3 mM EDTA, 0.2% (w/v) bovine serum albumin in 50 mM HEPES pH 7.5). […]

T1 sequence (P48729 whole entry, the tested form may be a part, canonical isoform): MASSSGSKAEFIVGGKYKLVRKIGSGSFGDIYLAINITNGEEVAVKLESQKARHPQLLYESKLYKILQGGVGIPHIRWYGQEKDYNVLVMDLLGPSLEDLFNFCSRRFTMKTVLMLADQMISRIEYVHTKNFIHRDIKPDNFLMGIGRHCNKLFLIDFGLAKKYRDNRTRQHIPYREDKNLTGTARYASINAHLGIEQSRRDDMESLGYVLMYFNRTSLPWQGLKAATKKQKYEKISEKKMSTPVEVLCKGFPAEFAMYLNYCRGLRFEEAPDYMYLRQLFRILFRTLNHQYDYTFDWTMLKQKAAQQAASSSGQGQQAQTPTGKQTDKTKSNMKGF
Casein kinase I isoform delta, sequence (P48730 whole entry, canonical isoform): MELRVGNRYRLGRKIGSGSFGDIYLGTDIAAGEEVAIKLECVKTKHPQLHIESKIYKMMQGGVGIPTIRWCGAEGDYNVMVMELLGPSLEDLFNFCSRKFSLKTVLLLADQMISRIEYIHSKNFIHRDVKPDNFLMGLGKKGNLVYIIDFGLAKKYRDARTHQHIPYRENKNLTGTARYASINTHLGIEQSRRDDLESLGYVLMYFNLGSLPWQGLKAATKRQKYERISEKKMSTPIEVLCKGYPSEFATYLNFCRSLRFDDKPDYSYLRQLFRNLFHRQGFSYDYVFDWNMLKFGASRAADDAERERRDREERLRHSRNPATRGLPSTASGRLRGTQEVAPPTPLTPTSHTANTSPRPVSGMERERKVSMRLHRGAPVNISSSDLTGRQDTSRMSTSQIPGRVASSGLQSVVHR
Epidermal growth factor receptor, sequence (P00533 whole entry): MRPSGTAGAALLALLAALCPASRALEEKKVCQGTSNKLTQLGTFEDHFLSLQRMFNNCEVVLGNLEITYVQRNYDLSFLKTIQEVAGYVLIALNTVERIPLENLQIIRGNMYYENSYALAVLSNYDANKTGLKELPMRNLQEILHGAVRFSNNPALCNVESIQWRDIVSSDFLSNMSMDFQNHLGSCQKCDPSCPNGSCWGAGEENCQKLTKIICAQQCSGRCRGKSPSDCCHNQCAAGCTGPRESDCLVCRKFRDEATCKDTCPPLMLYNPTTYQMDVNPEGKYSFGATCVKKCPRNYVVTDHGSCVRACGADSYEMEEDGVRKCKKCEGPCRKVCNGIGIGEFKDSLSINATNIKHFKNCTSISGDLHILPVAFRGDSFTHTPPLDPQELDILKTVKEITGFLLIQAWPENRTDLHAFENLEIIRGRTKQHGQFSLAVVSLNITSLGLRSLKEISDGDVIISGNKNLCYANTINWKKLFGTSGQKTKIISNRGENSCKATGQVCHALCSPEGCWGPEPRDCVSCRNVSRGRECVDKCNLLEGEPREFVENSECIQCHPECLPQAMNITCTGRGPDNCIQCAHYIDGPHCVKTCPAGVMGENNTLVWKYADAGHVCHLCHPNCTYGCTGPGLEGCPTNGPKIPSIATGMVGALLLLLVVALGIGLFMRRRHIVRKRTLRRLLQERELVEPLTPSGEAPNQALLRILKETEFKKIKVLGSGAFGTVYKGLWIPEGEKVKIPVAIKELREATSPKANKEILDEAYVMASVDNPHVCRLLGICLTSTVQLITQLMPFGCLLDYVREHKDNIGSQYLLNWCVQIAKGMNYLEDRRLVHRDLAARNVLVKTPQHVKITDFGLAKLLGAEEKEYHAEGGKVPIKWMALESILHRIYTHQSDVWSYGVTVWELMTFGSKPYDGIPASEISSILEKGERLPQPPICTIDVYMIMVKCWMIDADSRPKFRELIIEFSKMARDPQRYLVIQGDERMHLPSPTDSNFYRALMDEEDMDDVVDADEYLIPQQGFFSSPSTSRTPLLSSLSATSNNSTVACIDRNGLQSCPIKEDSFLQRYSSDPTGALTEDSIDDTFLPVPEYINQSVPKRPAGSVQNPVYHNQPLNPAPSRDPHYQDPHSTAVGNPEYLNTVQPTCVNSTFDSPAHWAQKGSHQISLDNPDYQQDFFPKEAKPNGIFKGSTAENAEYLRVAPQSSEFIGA

SMILES	IC50 [1] [nM]	IC50 [2] [nM]	IC50 [3] [nM]	IC50 [4] [nM]
CC(C)C(C(=O)Nc1cc(-c2[nH]c3ccc(F)nc3c2-c2ccccn2)ccn1)c1ccc(F)cc1 (single isomer, unassigned) [US20230339939, Example 24]	4.79	10.4	43	–
O=C(Cc1ccc(F)cc1)Nc1cc(-c2[nH]c3c(CC4CC4)cc(F)nc3c2-c2ccccn2)ccn1 [US20230339939, Example 37]	4	5.76	9.53	> 20000
